{"source": "ChEMBL document CHEMBL1130210", "about": "“Steroidal glycoside cholesterol absorption inhibitors” (1997)"}
{"test_system": "Cricetinae gen. sp.", "test": "Ability to inhibit the intestinal absorption of [3H]cholesterol in cholesterol-fed hamsters", "type": "functional", "units": {"ED50": "mg/kg"}}
{"smiles": "CC(C)CCC[C@@H](C)C1CC[C@H]2[C@@H]3CC[C@H]4C[C@@H](O[C@@H]5O[C@@H](CO)[C@@H](O[C@@H]6O[C@@H](CO)[C@@H](O)[C@H](O)[C@@H]6O)[C@H](O)[C@@H]5O)CC[C@]4(C)[C@H]3CC[C@]12C", "note": "(stereo partly drawn)", "ED50": 150}
{"smiles": "C[C@@H]1CC[C@@]2(OC1)OC1CC3C4CC[C@H]5C[C@@H](O[C@@H]6O[C@@H](CO)[C@@H](O[C@@H]7O[C@@H](COC(=O)NCc8ccccc8)[C@@H](O)[C@H](O)[C@@H]7O)[C@H](O)[C@@H]6O)CC[C@]5(C)C4C(=O)C[C@]3(C)C1[C@@H]2C", "note": "(stereo partly drawn)", "ED50": 5}
{"smiles": "C[C@@H]1CC[C@@]2(OC1)OC1CC3C4CC[C@H]5C[C@@H](O[C@@H]6O[C@@H](CO)[C@@H](O[C@@H]7O[C@@H](COC(=O)Nc8cccc(F)c8)[C@@H](OC(=O)Nc8cccc(F)c8)[C@H](O)[C@@H]7O)[C@H](O)[C@@H]6O)CC[C@]5(C)C4C(=O)C[C@]3(C)C1[C@@H]2C", "note": "(stereo partly drawn)", "ED50": 0.1}
{"smiles": "C[C@@H]1CC[C@@]2(OC1)OC1CC3C4CC[C@H]5C[C@@H](O[C@@H]6O[C@@H](CO)[C@@H](O[C@@H]7O[C@@H](COC(=O)Nc8ccccc8F)[C@@H](OC(=O)Nc8ccccc8F)[C@H](O)[C@@H]7O)[C@H](O)[C@@H]6O)CC[C@]5(C)C4C(=O)C[C@]3(C)C1[C@@H]2C", "note": "(stereo partly drawn)", "ED50": 0.025}
{"smiles": "C[C@@H]1CC[C@@]2(OC1)O[C@H]1C[C@H]3[C@@H]4CC=C5C[C@@H](O[C@@H]6O[C@@H](CO)[C@@H](O[C@@H]7O[C@@H](CO)[C@@H](O)[C@H](O)[C@@H]7O)[C@H](O)[C@@H]6O)CC[C@]5(C)[C@H]4CC[C@]3(C)[C@H]1[C@@H]2C", "ED50": 100}
{"smiles": "CC1CC[C@@]2(OC1)OC1C[C@H]3[C@@H]4CC[C@H]5C[C@@H](OC6OC(CF)C(OC7OC(CF)C(O)C(O)C7O)C(O)C6O)CC[C@]5(C)[C@H]4C(=O)C[C@]3(C)C1[C@@H]2C", "note": "(stereo partly drawn)", "ED50": 0.7}
{"smiles": "C[C@@H]1CC[C@@]2(OC1)OC1CC3C4CC[C@H]5C[C@@H](O[C@@H]6O[C@@H](CO)[C@@H](O[C@@H]7O[C@@H](COC(=O)Nc8ccc(F)cc8)[C@@H](OC(=O)Nc8ccc(F)cc8)[C@H](O)[C@@H]7O)[C@H](O)[C@@H]6O)CC[C@]5(C)C4C(=O)C[C@]3(C)C1[C@@H]2C", "note": "(stereo partly drawn)", "ED50": 0.2}
{"smiles": "C[C@@H]1CC[C@@]2(OC1)OC1CC3C4CC[C@H]5C[C@@H](O[C@@H]6O[C@@H](CO)[C@@H](O[C@@H]7O[C@@H](COC(=O)NCc8ccco8)[C@@H](OC(=O)NCc8ccco8)[C@H](O)[C@@H]7O)[C@H](O)[C@@H]6O)CC[C@]5(C)C4C(=O)C[C@]3(C)C1[C@@H]2C", "note": "(stereo partly drawn)", "ED50": 0.3}
{"smiles": "C[C@@H]1CC[C@@]2(OC1)OC1CC3C4CC[C@H]5C[C@@H](O[C@@H]6O[C@@H](CO)[C@@H](O[C@@H]7O[C@@H](COC(=O)NCc8ccccc8)[C@@H](OC(=O)NCc8ccccc8)[C@H](O)[C@@H]7O)[C@H](O)[C@@H]6O)CC[C@]5(C)C4C(=O)C[C@]3(C)C1[C@@H]2C", "note": "(stereo partly drawn)", "ED50": 0.3}
{"smiles": "CC1CC[C@@]2(OC1)OC1C[C@H]3[C@@H]4CC[C@H]5C[C@@H](O[C@@H]6O[C@@H](CO)C(O[C@@H]7O[C@@H](COC(=O)Nc8ccccc8Cl)[C@@H](OC(=O)Nc8ccccc8Cl)[C@H](O)[C@@H]7O)[C@@H](O)[C@@H]6O)CC[C@]5(C)[C@H]4C(=O)C[C@]3(C)C1[C@@H]2C", "note": "(stereo partly drawn)", "ED50": 1}
{"smiles": "C[C@]12CC[C@H](O[C@@H]3O[C@@H](CO)[C@@H](O[C@@H]4O[C@@H](CO)[C@@H](O)[C@H](O)[C@@H]4O)[C@H](O)[C@@H]3O)C[C@@H]1CC[C@@H]1[C@@H]2CC[C@]2(C)C(=O)CC[C@@H]12", "ED50": 25}
{"smiles": "Cc1ccccc1NC(=O)OC[C@@H]1O[C@@H](O[C@H]2[C@H](O)[C@H](O)[C@H](O[C@H]3CC[C@]4(C)C5C(=O)C[C@@]6(C)C(CC7O[C@]8(CC[C@@H](C)CO8)[C@@H](C)C76)C5CC[C@H]4C3)O[C@H]2CO)[C@@H](O)[C@@H](O)[C@@H]1O", "note": "(stereo partly drawn)", "ED50": 0.5}
{"smiles": "C[C@@H]1CC[C@@]2(OC1)OC1CC3C4CC[C@H]5C[C@@H](O[C@@H]6O[C@@H](COC(=O)Nc7ccccc7F)[C@@H](O[C@@H]7O[C@@H](COC(=O)Nc8ccccc8F)[C@@H](O)[C@H](O)[C@@H]7O)[C@H](O)[C@@H]6O)CC[C@]5(C)C4C(=O)C[C@]3(C)C1[C@@H]2C", "note": "(stereo partly drawn)", "ED50": 0.8}
{"smiles": "C[C@@H]1CC[C@@]2(OC1)OC1CC3C4CC[C@H]5C[C@@H](O[C@@H]6O[C@@H](CO)[C@@H](O[C@@H]7O[C@@H](COC(=O)Nc8ccccc8F)[C@@H](OC(=O)Nc8ccccc8F)[C@H](O)[C@@H]7O)[C@H](O)[C@@H]6O)CC[C@]5(C)C4CC[C@]3(C)C1[C@@H]2C", "note": "(stereo partly drawn)", "ED50": 1}
{"smiles": "C[C@H]1CC[C@@]2(OC1)O[C@H]1C[C@H]3[C@@H]4CC[C@@H]5C[C@@H](O[C@@H]6O[C@@H](CO)[C@@H](O[C@@H]7O[C@@H](CO)[C@@H](O)[C@H](O)[C@@H]7O)[C@H](O)[C@@H]6O)CC[C@]5(C)[C@H]4CC[C@]3(C)C1[C@@H]2C", "note": "(stereo partly drawn)", "ED50": 75}
{"smiles": "CC1CC[C@@]2(OC1)OC1C[C@H]3[C@@H]4CC[C@H]5C[C@@H](OC6OC(CI)C(OC7OC(CI)C(O)C(O)C7O)C(O)C6O)CC[C@]5(C)[C@H]4C(=O)C[C@]3(C)C1[C@@H]2C", "note": "(stereo partly drawn)", "ED50": 1.5}
{"smiles": "CC1CC[C@@]2(OC1)OC1C[C@H]3[C@@H]4CC[C@H]5C[C@@H](O[C@@H]6O[C@@H](CO)[C@@H](O[C@@H]7O[C@@H](COC(=O)N8CCOCC8)[C@@H](OC(=O)N8CCOCC8)[C@H](O)C7O)[C@H](O)[C@@H]6O)CC[C@]5(C)[C@H]4C(=O)C[C@]3(C)C1[C@@H]2C", "note": "(stereo partly drawn)", "ED50": 4}
{"smiles": "C[C@@H]1CC[C@@]2(OC1)OC1CC3C4CC[C@H]5C[C@@H](O[C@@H]6O[C@@H](CO)[C@@H](O[C@@H]7O[C@@H](COC(=O)Nc8ccccc8F)[C@@H](OC(=O)Nc8ccccc8F)[C@H](O)[C@@H]7O)[C@H](O)[C@@H]6O)CC[C@]5(C)C4CC(=O)[C@]3(C)C1[C@@H]2C", "note": "(stereo partly drawn)", "ED50": 0.07}
{"smiles": "C[C@@H]1CC[C@@]2(OC1)O[C@H]1C[C@H]3[C@@H]4CC[C@H]5C[C@@H](O[C@@H]6O[C@@H](CO)[C@@H](O[C@@H]7O[C@@H](CO)[C@@H](O)[C@H](O)[C@@H]7O)[C@H](O)[C@@H]6O)CC[C@]5(C)[C@H]4CC(=O)[C@]3(C)[C@H]1[C@@H]2C", "note": "[CELLOBIOSYL HECOGENIN]", "ED50": 10}
{"smiles": "C[C@@H]1CC[C@@]2(OC1)OC1CC3C4CC[C@H]5C[C@@H](O[C@@H]6O[C@@H](COC(=O)Nc7ccc(Cl)cc7)[C@@H](O[C@@H]7O[C@@H](COC(=O)Nc8ccc(Cl)cc8)[C@@H](O)[C@H](O)[C@@H]7O)[C@H](O)[C@@H]6O)CC[C@]5(C)C4C(=O)C[C@]3(C)C1[C@@H]2C", "note": "(stereo partly drawn)", "ED50": 5}
{"smiles": "C[C@@H]1CC[C@@]2(OC1)OC1CC3C4CC[C@H]5C[C@@H](O[C@@H]6O[C@@H](COC(=O)Nc7c(Cl)cccc7Cl)[C@@H](O[C@@H]7O[C@@H](COC(=O)Nc8c(Cl)cccc8Cl)[C@@H](O)[C@H](O)[C@@H]7O)[C@H](O)[C@@H]6O)CC[C@]5(C)C4C(=O)C[C@]3(C)C1[C@@H]2C", "note": "(stereo partly drawn)", "ED50": 0.4}
{"smiles": "C[C@@H]1CC[C@@]2(OC1)O[C@H]1C[C@H]3[C@@H]4CC[C@H]5C[C@@H](O[C@@H]6O[C@H](CO)[C@@H](O)[C@H](O)[C@H]6O)CC[C@]5(C)[C@H]4C(=O)C[C@]3(C)[C@H]1[C@@H]2C", "ED50": 16}
{"smiles": "C[C@@H]1CC[C@@]2(OC1)OC1CC3C4CC[C@H]5C[C@@H](O[C@@H]6O[C@@H](CO)[C@@H](O[C@@H]7O[C@@H](COC(=O)NCCc8ccccc8)[C@@H](O)[C@H](O)[C@@H]7O)[C@H](O)[C@@H]6O)CC[C@]5(C)C4C(=O)C[C@]3(C)C1[C@@H]2C", "note": "(stereo partly drawn)", "ED50": 5}
